{"source": "patent US8614342B2", "about": "“Process for preparing epoxycarboxylic esters” (BASF SE, priority 2012, dated 2013)", "details": "20° C."}
{"smiles": "COC(=O)C1CO1", "note": "(stereo not shown) [MEP, Methyl Epoxy Propionate]", "values": [{"measurement": "solubility of MEP in water", "result": "43 g/10 g of H2O"}]}
